Data set [1] concerns MDA-MB-231 breast cancer cell lines. Briefly: Evaluation of inhibition on cell growth (MTS). The class given is cell-based. To be noted: Homo sapiens, MDA-MB-231, 120 hours. The method, then: (§1) MDA-MB-231 breast cancer cell lines (ATCC #HTB-26) and BxPC-3 pancreas cancer cell lines (ATCC #CRL 1687), which have been reported to express XIAP, were obtained from ATCC (American type culture collection; Rockville, Md.). MDA-MB-231 cell lines were incubated in L-15 medium supplemented with 10% FBS and 1% penicillin/streptomycin (Gibco BRL) at a T-75 cm^2 growth flask. In addition, BxPC-3 cell lines were incubated in RPMI medium supplemented with 10% FBS and 1% penicillin/streptomycin. For experiments of toxicity to normal cells, fibroblasts Hs27 (ATCC #CRL 1634) and Balb/c3t3 (ATCC #CCL 163) were used. The various cell lines were transferred into 96-well plates at a density of 3,000˜5,000 cells/100 μL, and cultured for 24 hours under conditions of 37° C., 5% CO2, 95% air, and 100% relative humidity (MDA-MB-231 cells were cultured under atmospheric conditions). The cells were treated with 10 μM˜0.1 nM of test compounds, and MDA-MB-231, BxPC-3, and normal cell lines were cultured for 120, 96, and 72 hours, respectively.
(§2) Cell viabilities of MDA-MB-231 cell lines were measured at an absorbance of 490 nm using CellTiter 96™ AQueous One Solution Cell proliferation Assay (MTS, Promega), and cell viabilities of BxPC-3 and normal cell lines were measured by fixing cells with 10% TCA (trichloroacetic acid), staining with SRB (sulforhodamine B), and measuring at 540 nm. From the values, GI50 values in which test compounds reduce the growth of cancer cells by 50% were calculated. The growth rates of cancer cells were calculated from following Equation 1 or 2. [(Ti−Tz)/(C−Tz)]×100 (for Ti>=Tz) [Equation 1] [(Ti−Tz)/Tz]×100 (for Ti<Tz) [Equation 2] In Equations 1 and 2, Tz refers to a density of untreated cells, which is an absorbance in 0% cell growth groups. C refers to a density of cells cultured by adding only medium, and Ti refers to a density of cells treated with test compounds.
(§3) GI50 value is the concentration of a test compound when the value of Equation 1 is 50, which indicates the concentration of test compound required to inhibit the cancer cells by 50%. On each measurement, test compounds were compared with a control.
(§4) The activity value of each compound (GI50 value) was shown in Table 5, and an IAP antagonist was used as a control.
(§5) In the activity measurement on MDA-MB-231 breast cancer cell lines, the values were represented as “***” for 100 nM or less, “**” for over 100 nM to below 1,000 nM, and “*” for 1,000 nM or more. In the measurement on normal cell lines, Balb/C and Hs27, the values were represented as “+++” for 10,000 nM or more, “++” for over 5,000 nM to below 10,000 nM, and “+” for 5,000 nM or less.

Data set [2] can be described thus: Toxicity to normal cells (SRB). The note with it: human, Hs27 fibroblasts (normal cell line). The class given is cell-based, human. The method, then:
as §1, §2, §3, §4, §5

Our source for the GI50 values is patent publication US8835458B2 (Hanmi Science Co., Ltd, priority 2010, dated 2014).

Where a name gives a salt, the structure may show the parent alone.

Usually GI50 stands for the concentration at which growth is held to half of that of the control. A lower GI50 goes with greater sensitivity of the cells. `CN[C@@H](C)C(=O)N[C@H](C(=O)N1CCC[C@H]1C(=O)Nc1cc2c(NCC3CCCCC3)ncnc2cc1OC)C(C)(C)C` [Example 77, (S)—N-(4-(cyclohexylmethyl)amino)-7-methoxyquinazolin-6-yl)-1-((S)-3,3-dimethyl-2-((S)-2-(methylamino)propanamido)butanoyl)pyrrolidine-2-carboxamide hydrochloride]: the GI50 in data set [1] was ≤ 100 nM. Also, the 50% growth inhibitory concentration (GI50) at 72 h in data set [2] is > 10000 nM.
For `CN[C@@H](C)C(=O)N[C@H](C(=O)N1CCC[C@H]1C(=O)Nc1cc2c(Nc3cccnc3Cl)ncnc2cc1OC)C(C)(C)C` [Example 78, (S)—N-(4-((2-chloropyridin-3-yl)amino)-7-methoxyquinazolin-6-yl)-1-((S)-3,3-dimethyl-2-((S)-2-(methylamino)propanamido)butanoyl)pyrrolidine-2-carboxamide hydrochloride], the concentration for 50% growth inhibition (GI50) in data set [1] is ≤ 100 nM. Further, in data set [2], the GI50 at 72 h is > 10000 nM.
Take `CN[C@@H](C)C(=O)N[C@H](C(=O)N1CCC[C@H]1C(=O)Nc1cc2c(Nc3ccc(Cl)nc3)ncnc2cc1OC)C(C)(C)C` [Example 79, (S)—N-(4-((6-chloropyridin-3-yl)amino)-7-methoxyquinazolin-6-yl)-1-((S)-3,3-dimethyl-2-((S)-2-(methylamino)propanamido)butanoyl)pyrrolidine-2-carboxamide hydrochloride]: the GI50 in data set [1] is ≤ 100 nM. The GI50 at 72 h in data set [2] was > 10000 nM.
For the compound `CN[C@@H](C)C(=O)N[C@H](C(=O)N1CCC[C@H]1C(=O)Nc1cc2c(Nc3ccc(Br)cc3Cl)ncnc2cc1OC)C(C)(C)C` [Example 80, (S)—N-(4-((4-bromo-2-chlorophenyl)amino)-7-methoxyquinazolin-6-yl)-1-((S)-3,3-dimethyl-2-((S)-2-(methylamino)propanamido)butanoyl)pyrrolidine-2-carboxamide hydrochloride], in data set [1], the 50% growth inhibitory concentration (GI50) was ≤ 100 nM. Further, the GI50 at 72 h in data set [2] is > 10000 nM.
On the same counts, the results for `CN[C@@H](C)C(=O)N[C@H](C(=O)N1CCC[C@H]1C(=O)Nc1cc2c(Nc3cccc(Cl)c3Cl)ncnc2cc1OC)C(C)(C)C` [Example 81, (S)—N-(4-((2,3-dichlorophenyl)amino)-7-methoxyquinazolin-6-yl)-1-((S)-3,3-dimethyl-2-((S)-2-(methylamino)propanamido)butanoyl)pyrrolidine-2-carboxamide hydrochloride] are ≤ 100 nM and > 10000 nM.
The corresponding values for `CN[C@@H](C)C(=O)N[C@H](C(=O)N1CCC[C@H]1C(=O)Nc1cc2c(Nc3ccc(F)cc3Br)ncnc2cc1OC)C(C)(C)C` [Example 82, (S)—N-(4-((2-bromo-4-fluorophenyl)amino)-7-methoxyquinazolin-6-yl)-1-((S)-3,3-dimethyl-2-((S)-2-(methylamino)propanamido)butanoyl)pyrrolidine-2-carboxamide hydrochloride] are ≤ 100 nM and > 10000 nM.
Compound `CN[C@@H](C)C(=O)N[C@H](C(=O)N1CCC[C@H]1C(=O)Nc1cc2c(NCCc3ccccc3)ncnc2cc1OC)C(C)(C)C` [Example 83, hydrochloride] had a GI50 in data set [1] of 100 to 1000 nM. Moreover, in data set [2], the GI50 at 72 h is > 10000 nM.
In the case of `C#CCOc1ccc(Nc2ncnc3cc(OC)c(NC(=O)[C@@H]4CCCN4C(=O)[C@@H](NC(=O)[C@H](C)NC)C(C)(C)C)cc23)cn1` [Example 84, (S)-1-((S)-3,3-dimethyl-2-((S)-2-(methylamino)propanamido)butanoyl)-N-(7-methoxy-4-((6-(prop-2-yn-1-yloxy)pyridin-3-yl)amino)quinazolin-6-yl)pyrrolidine-2-carboxamide hydrochloride], the GI50 in data set [1] fell in the range of 100 to 1000 nM. Also, the 50% growth inhibitory concentration (GI50) at 72 h in data set [2] was > 10000 nM.
For `CN[C@@H](C)C(=O)N[C@H](C(=O)N1CCC[C@H]1C(=O)Nc1cc2c(Nc3ccc(N4CCCCC4)c(F)c3)ncnc2cc1OC)C(C)(C)C` [Example 85, (S)-1-((S)-3,3-dimethyl-2-((S)-2-(methylamino)propanamido)butanoyl)-N-(4-((3-fluoro-4-(piperidin-1-yl)phenyl)amino)-7-methoxyquinazolin-6-yl)pyrrolidine-2-carboxamide hydrochloride], the GI50 in data set [1] is ≤ 100 nM. In addition, the GI50 at 72 h in data set [2] is > 10000 nM.
Take `CN[C@@H](C)C(=O)N[C@H](C(=O)N1CCC[C@H]1C(=O)Nc1cc2c(Nc3ccc(N4CCN(C)CC4)c(Cl)c3)ncnc2cc1OC)C(C)(C)C` [Example 86, (S)—N-(4-((3-chloro-4-(4-methylpiperazin-1-yl)phenyl)amino)-7-methoxyquinazolin-6-yl)-1-((S)-3,3-dimethyl-2-((S)-2-(methylamino)propanamido)butanoyl)pyrrolidine-2-carboxamide hydrochloride]: the GI50 in data set [1] is ≤ 100 nM. For the same compound, the GI50 at 72 h in data set [2] is > 10000 nM.
Take `CN[C@@H](C)C(=O)N[C@H](C(=O)N1CCC[C@H]1C(=O)Nc1cc2c(Nc3ccc(Br)c(Cl)c3F)ncnc2cc1OC)C(C)(C)C` [Example 87, (S)—N-(4-((4-bromo-3-chloro-2-fluorophenyl)amino)-7-methoxyquinazolin-6-yl)-1-((S)-3,3-dimethyl-2-((S)-2-(methylamino)propanamido)butanoyl)pyrrolidine-2-carboxamide hydrochloride]: the GI50 in data set [1] is ≤ 100 nM. The 50% growth inhibitory concentration (GI50) at 72 h in data set [2] was > 10000 nM.
On the same counts, the results for `CN[C@@H](C)C(=O)N[C@H](C(=O)N1CCC[C@H]1C(=O)Nc1cc2c(Nc3ccc(-n4ccnc4)cc3)ncnc2cc1OC)C(C)(C)C` [Example 88, (S)—N-(4-((4-(1H-imidazol-1-yl)phenyl)amino)-7-methoxyquinazolin-6-yl)-1-((S)-3,3-dimethyl-2-((S)-2-(methylamino)propanamido)butanoyl)pyrrolidine-2-carboxamide hydrochloride] are ≤ 100 nM and > 10000 nM.
With `CN[C@@H](C)C(=O)N[C@H](C(=O)N1CCC[C@H]1C(=O)Nc1cc2c(NC(=O)Nc3ccccc3F)ncnc2cc1OC)C(C)(C)C` [Example 89, (S)-1-((S)-3,3-dimethyl-2-((S)-2-(methylamino)propanamido)butanoyl)-N-(4-(3-(2-fluorophenyl)ureido)-7-methoxyquinazolin-6-yl)pyrrolidine-2-carboxamide hydrochloride], the concentration for 50% growth inhibition (GI50) in data set [1] is ≤ 100 nM. In addition, the GI50 at 72 h in data set [2] is > 10000 nM.
For `CN[C@@H](C)C(=O)N[C@H](C(=O)N1CCC[C@H]1C(=O)Nc1cc2c(Nc3ccc(N4CCOCC4)cc3)ncnc2cc1OC)C(C)(C)C` [Example 90, (S)-1-((S)-3,3-dimethyl-((S)-2-(methylamino)propanamido)butanoyl)-N-(7-methoxy-4-((4-morpholinophenyl)amino)quinazolin-6-yl)pyrrolidine-2-carboxamide hydrochloride], in data set [1], the concentration for 50% growth inhibition (GI50) was ≤ 100 nM. In addition, in data set [2], the 50% growth inhibitory concentration (GI50) at 72 h was > 10000 nM.
`C#CCOc1ccc(Nc2ncnc3cc(OC)c(NC(=O)[C@@H]4CCCN4C(=O)[C@@H](NC(=O)[C@H](C)NC)C(C)(C)C)cc23)cc1` [Example 91, (S)-1-((S)-3,3-dimethyl-2-((S)-2-(methylamino)propanamide)butanoyl)-N-(7-methoxy-4-((4-(2-propyn-1-yloxy)phenyl)amino)quinazolin-6-yl)pyrrolidine-2-carboxamide hydrochloride]: in data set [1], the GI50 is ≤ 100 nM. Besides, the 50% growth inhibitory concentration (GI50) at 72 h in data set [2] was > 10000 nM.
Consider `CN[C@@H](C)C(=O)N[C@H](C(=O)N1CCC[C@H]1C(=O)Nc1cc2c(Nc3ccc(N4CCN(CC5CC5)CC4)c(Cl)c3)ncnc2cc1OC)C(C)(C)C` [Example 92, (S)—N-(4-((3-chloro-4-(4-(cyclopropylmethyl)piperazin-1-yl)phenyl)amino)-7-methoxyquinazolin-6-yl)-1-((S)-3,3-dimethyl-2-((S)-2-(methylamino)propanamido)butanoyl)pyrrolidine-2-carboxamide], for which the GI50 in data set [1] is ≤ 100 nM. In data set [2], the GI50 at 72 h was > 10000 nM.
As for `CN[C@@H](C)C(=O)N[C@H](C(=O)N1CCC[C@H]1C(=O)Nc1cc2c(Nc3ccc4c(=O)cc(C)oc4c3)ncnc2cc1OC)C(C)(C)C` [Example 93, (S)-1-((S)-3,3-dimethyl-2-((S)-2-(methylamino)propanamide)butanoyl)-N-(7-methoxy-4-((2-methyl-4-oxo-4H-chromen-7-yl)amino)quinazolin-6-yl)pyrrolidine-2-carboxamide hydrochloride], in data set [1], the 50% growth inhibitory concentration (GI50) was ≤ 100 nM. In data set [2], the GI50 at 72 h was > 10000 nM.
